In patent US4988517A, “Method and composition for inhibiting colon carcinogenesis” (American Health Foundation, priority 1988, dated 1991):
Entries after “also recorded” stand apart in the source; their conditions may differ.

What was measured:
[1] = Body weights of male F344 rats fed the experimental diets; assay type: in vivo; details: for Body wt, Initial (Wk 0) / Body wt, wk 4 / Body wt, wk 8 / Body wt, wk 16 / Body wt, wk 22 / Body wt, wk 30 / Body wt, wk 37 (at termination): 25 ppm in diet, Mean ± SD
Description: (§1) Experimental Procedure. Male F344 rats received at weaning were quarantined for 10 days and given access to AIN-76A semipurified diet (control diet). They were then be randomly allocated by weight to one of three dietary groups (control diet and 25 ppm BSC and 25 ppm benzylthiocyanate ("BTC") diets). […] Therefore one of our goals was to compare BSC with its sulfur analog BTC. Each dietary group was divided into AOM-treated (27 animals per subgroup) and vehicle-treated (12 animals per subgroup) subgroups and housed in plastic cages with filter tops in the animal holding room under controlled environmental conditions.
(§2) Beginning at 5 wk of age, groups of rats fed the control diet were transferred to diets containing 25 ppm BSC or 25 ppm BTC. At 7 wk of age, the animals in each group, except the vehicle-treated controls, received two weekly s.c. injections of AOM at a dose level of 15 mg/kg body weight/wk. Vehicle controls were treated with an equal volume of normal saline. One wk after AOM or saline treatment, animals receiving the BSC and BTC diets were transferred to the control diets and continued on this diet until the termination of the experiment. The 1-wk delay before transferring to control diet was to ensure complete metabolism and excretion of the carcinogen. The animals receiving the control diet continued on the same diet. The experiment was terminated 34 wk after the last AOM injection.
(§3) Body weights were recorded weekly until the animals reach 16 wk of age and then every 4 wk. Six vehicle-treated animals randomly chosen from each dietary group while they were consuming experimental and control diets were used for tissue and blood plasma glutathione peroxidase analysis.

[2] = system: azoxymethane-induced colon tumors; experiment: AOM-induced colon tumor incidence and multiplicity (initiation phase feeding); assay type: in vivo, male F344 rats
Description: as §1, §2
(§4) Both AOM-and vehicle-treated animals were sacrificed by CO2 euthanasia. Following laparotomy, the entire stomach, small intestine, and large intestine were resected and opened longitudinally, and the contents flushed with normal saline. The location, number, and size of the colon and small intestinal tumors were noted grossly under the dissection microscope. All other organs, including liver and kidneys, were also examined grossly for tumors. Tissues were fixed in 10% buffered formalin, embedded in paraffin blocks, and processed by routine histological methods with the use of eosin and hematoxylin stains.
(§5) Statistical Analysis. The data on tumor incidence were analyzed statistically by the x^2 method and Fischer's exact probability test, and tumor multiplicity was analyzed by Student's t test. Biochemical results were analyzed by Student's t test.
(§6) Using the above-identified procedures, a study was made of the effect of feeding benzylselenocyanate and its sulfur analogue, benzylthiocyanate, two (2) weeks before, during and until one (1) week after carcinogen administration (initiation phase) on intestinal carcinogenesis induced by azoxymethane (CAS: 25843-45-2) in male F344 rats.

[3] = system: azoxymethane-induced small intestinal tumors; experiment: AOM-induced small intestinal tumor incidence and multiplicity; assay type: in vivo, male F344 rats
Description: as §1, §2, §4, §5, §6

[4] = system: azoxymethane-induced ear duct tumors; experiment: AOM-induced ear duct tumor incidence; assay type: in vivo, male F344 rats; details: 25 ppm in diet; AOM treated
Description: as §1, §2
as §4, with “Tissues were fixed in 10% buffered formalin, embedded in paraffin blocks, and processed by routine histological methods with the use of eosin and hematoxylin stains.” left out
as §5

[5] = system: azoxymethane-induced metastasis; experiment: AOM-induced metastasis; assay type: in vivo, male F344 rats
Description: as §1, §2, §4

[6] = system: selenium-dependent glutathione peroxidase; experiment: Selenium-dependent glutathione peroxidase activity in tissues of rats fed the diets; assay type: in vivo, male F344 rats
Protocol: as §3
Biochemical Determination. For the determination of tissue and blood plasma glutathione peroxidase activity, 6 vehicle-treated animals from each dietary group, while the animals were on experimental and control diets, were used. Before sacrificing the animals, blood was obtained under ether anesthesia by cardiac puncture with a syringe. They were then decapitated,and liver, kidneys, small intestine, and colon were rapidly removed. The liver was perfused with ice-cold normal saline. The small intestine and colon were slit open longitudinally and freed from all the contents, and the mucosa was scraped with a microscope glass slide. The liver and kidneys were trimmed free of connective tissue, minced with scissors, and homogenized for 10 s in 3 volumes of buffer, pH 7.3 (0.25 sucrose-10 mM EDTA-50 mM potassium phosphate) using a Brinkman Polytron at low speed. The colonic and small intestinal mucosal scrapings were immediately placed into 3 volumes of the same buffer and homogenized similarly. The homogenates were centrifuged in a Sorvall RC-2B centrifuge at 10,000×g, 4° C., for 20 min. The supernatant was centrifuged in a Beckman Ultracentrifuge at 100,000×g, 4° C., for 1 h. The resulting cytosol fraction was used for determination of glutathione peroxidase activity and protein.
Glutathione peroxidase activity was determined spectrophotometrically according to a modification of the enzyme-coupled assay procedure of Paglia and Valentine. The reaction mixture consisted of 50 mM potassium phosphate buffer (pH 7.0), 1 mM EDTA, 0.2 mM NADPH, 1 enzyme unit/ml oxidized glutathione-reductase, 1 mM glutathione, and 1.5 mM cumene hydroperoxide in a total volume of 1 ml. The cytosol was added to the above mixture and allowed to incubate 5 min. at room temperature. Total glutathione peroxide was measured with cumene hydroperoxide as a substrate. Selenium-dependent glutathione peroxide was measured with tert-butyl hydroperoxide. The reaction was started with the addition of substrate solution. Absorbance was measured at 340 nm, and activity was measured from the slope of the lines as mol NADPH oxidized/min/mg protein. Blank reactions without cytosol were run simultaneously. Protein concentration in the cytosol fraction was measured by the method of Lowry et al. with bovine serum albumin as standard.
as §5

[7] = system: non-selenium-dependent glutathione peroxidase; experiment: Non-selenium-dependent glutathione peroxidase activity in tissues of rats fed the diets; assay type: in vivo, male F344 rats; details: among the dietary groups
Protocol: as §3
Biochemical Determination. For the determination of tissue and blood plasma glutathione peroxidase activity, 6 vehicle-treated animals from each dietary group, while the animals were on experimental and control diets, were used. Before sacrificing the animals, blood was obtained under ether anesthesia by cardiac puncture with a syringe. They were then decapitated,and liver, kidneys, small intestine, and colon were rapidly removed. The liver was perfused with ice-cold normal saline. […]
Glutathione peroxidase activity was determined spectrophotometrically according to a modification of the enzyme-coupled assay procedure of Paglia and Valentine. […] Total glutathione peroxide was measured with cumene hydroperoxide as a substrate. Selenium-dependent glutathione peroxide was measured with tert-butyl hydroperoxide. […] Absorbance was measured at 340 nm, and activity was measured from the slope of the lines as mol NADPH oxidized/min/mg protein. […] Protein concentration in the cytosol fraction was measured by the method of Lowry et al. with bovine serum albumin as standard.

[8] = General toxicity observation in rats fed the diets; assay type: in vivo, male F344 rats; details: 25 ppm in diet
Description: as §1, §2, §3

LD50 in rats = details: rat, in vivo
Description: (§7) The instant invention may open new approaches to the development of effective and less toxic novel selenium-containing chemopreventive agents. For example, although is too early to determine definitively the optimum dose which will be suitable for human use, we can estimate a dose based on the LD50 of BSC in rats (lethal dose at which 50% of the rats die). […] An order of magnitude of ten (10) times less than the LD50 may be appropriate for humans.

[9] = LD50 in humans, extrapolated from rats; design: unit not given here; details: extrapolated: 125×70^0.75
Description: as §7

[10] = system: benzo(a) pyrene-induced forestomach tumors; details: mice; cited from earlier work
[11] = system: azoxymethane ("AOM")-induced colon, kidney, and hepatocarcinogenesis; details: 50 ppm in semipurified high fat diet, 2 wk before, during, 1 wk after carcinogen, liver; cited from earlier work
[12] = 25 ppm in diet 2 wk before to 1 wk after AOM
[13] = 25 ppm in diet, 27 (BSC) or 26 (BTC) animals/group
[14] = 25 ppm in diet 5 wk, Mean ± SE (n = 6)

## N#C[Se]Cc1ccccc1 [BSC, benzylselenocyanate]
[1]; AOM or vehicle treated, in words
  Body weights of animals fed experimental vs control diets: comparable
[1]; AOM treated
  Body wt, Initial (Wk 0): 40 ± 4 g
  Body wt, wk 4: 174 ± 9 g
  Body wt, wk 8: 279 ± 15 g
  Body wt, wk 16: 348 ± 16 g
  Body wt, wk 22: 390 ± 21 g
  Body wt, wk 30: 430 ± 20 g
  Body wt, wk 37 (at termination): 449 ± 22 g
[1]; Vehicle treated
  Body wt, Initial (Wk 0): 41 ± 4 g
  Body wt, wk 4: 179 ± 12 g
  Body wt, wk 8: 284 ± 19 g
  Body wt, wk 16: 364 ± 19 g
  Body wt, wk 22: 402 ± 20 g
  Body wt, wk 30: 448 ± 26 g
  Body wt, wk 37 (at termination): 467 ± 21 g
[2]; [12]
  Colon tumor incidence, Adenocarcinoma: 11 % of animals with tumors
  Colon tumor incidence, Adenoma: 44 % of animals with tumors
  Colon tumor incidence, Total (adenomas plus adenocarcinomas): 48 % of animals with tumors
[2]; [13]
  Number of animals with colon tumors, Adenocarcinoma: 3 number of animals
  Number of animals with colon tumors, Adenoma: 12 number of animals
  Number of animals with colon tumors, Total: 13 number of animals
[2]; 25 ppm in diet, Mean ± SD
  Colon tumor multiplicity, Adenocarcinoma: 0.11 ± 0.3 no. of tumors/animals
  Colon tumor multiplicity, Adenoma: 0.70 ± 0.9 no. of tumors/animals
  Colon tumor multiplicity, Total: 0.81 ± 1.0 no. of tumors/animals
[2]; 25 ppm in diet, in parentheses
  Number of tumors per group, colon Adenocarcinoma: 3 number of tumors per group
[2]; initiation phase of carcinogenesis
  Inhibition of AOM-induced colon tumors (in words): inhibits AOM-induced tumors in the colon; also recorded: inhibited colon tumors during the initiation phase of carcinogenesis
[2]; vs control diet
  Incidence of adenocarcinomas of the colon (in words): significantly lower in rats fed the BSC diet than in those fed the control diet; also recorded: significantly inhibits
  Incidence of total colon tumors (in words): significantly lower in rats fed the BSC diet than in those fed the control diet
[2]; vs control diet and BTC diet
  Number of colon adenocarcinomas per animal (in words): significally inhibited in animals fed the BSC diet compared to those fed the control diet and BTC diet; also recorded: significantly inhibits
  Number of total colon tumors per animal (in words): significally inhibited in animals fed the BSC diet compared to those fed the control diet and BTC diet
[2]; vs control diet and BTC diet, not statistically significant
  Multiplicity of colon adenomas (in words): slight inhibition of multiplicity of adenomas in the BSC diet as compared to the control diet and BTC diet
[3]; [12]
  Small intestinal tumor incidence, Adenocarcinoma: 15 % of animals with tumors
  Small intestinal tumor incidence, Adenoma: 4 % of animals with tumors
  Small intestinal tumor incidence, Total: 19 % of animals with tumors
[3]; [13]
  Number of animals with small intestinal tumors, Adenocarcinoma: 4 number of animals
  Number of animals with small intestinal tumors, Adenoma: 1 number of animals
  Number of animals with small intestinal tumors, Total: 5 number of animals
[3]; 25 ppm in diet, Mean ± SD
  Small intestinal tumor multiplicity, Adenocarcinoma: 0.15 0.3 no. of tumors/animal
  Small intestinal tumor multiplicity, Adenoma: 0.04 0.2 no. of tumors/animal
  Small intestinal tumor multiplicity, Total: 0.19 0.3 no. of tumors/animal
[3]; differences among groups not significant
  Incidence of small intestinal adenocarcinomas (in words): slightly reduced the incidence of small intestinal adenocarcinomas
[3]; rat, in vivo
  Inhibition of AOM-induced tumors in the small intestine (in words): to a certain extent, in the small intestine
[3]; vs BTC diet and control diet
  Small intestinal tumor multiplicity, total (in words): significantly inhibited in animals fed the BSC diet compared to those fed the BTC diet and control diet
[3]; vs control diet
  Multiplicity of small intestinal adenocarcinomas (in words): significant inhibition in the multiplicity of small intestinal adenocarcinomas; also recorded: significantly inhibits
[4]
  % of animals with ear duct tumors: 7 % of animals
[5]; 25 ppm in diet, AOM treated
  No. of animals with metastasis: 0 No. of animals
[5]; several organs
  AOM-induced metastasis (in words): inhibits AOM-induced metastasis in several organs; also recorded: none of the animals in BSC and BTC diet groups developed metastasis
[6]; [14]
  Selenium-dependent glutathione peroxidase activity, Kidney: 1.70 0.29 μmol NADPH oxidized/min/mg protein
  Selenium-dependent glutathione peroxidase activity, Liver: 1.88 0.60 μmol NADPH oxidized/min/mg protein
  Selenium-dependent glutathione peroxidase activity, Plasma: 0.78 0.14 μmol NADPH oxidized/min/mg protein
[6]; 25 ppm in diet 5 wk, colonic mucosa, Mean ± SE (n = 6)
  Selenium-dependent glutathione peroxidase activity, Colon: 0.56 0.14 μmol NADPH oxidized/min/mg protein
[6]; 25 ppm in diet 5 wk, small intestinal mucosa, Mean ± SE (n = 6)
  Selenium-dependent glutathione peroxidase activity, Small intestine: 0.71 0.13 μmol NADPH oxidized/min/mg protein
[6]; kidney, colon and small intestine
  Selenium-dependent glutathione peroxidase activity (in words): increase in selenium-dependent glutathione peroxidase activity in the kidney, colon, and small intestine; also recorded: significant increase in the enzyme activity in kidney and colonic and small intestinal mucosae of animals fed the BSC diet compared to that in those animals fed the BTC diet and control diet
[6]; liver and plasma
  Selenium-dependent glutathione peroxidase activity (in words): no effect on this enzyme activity in the liver and plasma; also recorded: not affected
[7]
  Non-selenium-dependent glutathione peroxidase activity (in words): no differences in the activity of non-selenium-dependent glutathione peroxidase activity among the dietary groups
[8]
  Evidence of toxicity in animals fed the diet: no evidence of toxicity
LD50 in rats
  LD50: 125 mg/kg
[9]
  approximate LD50 in humans: ~3025
[10]
  Inhibition of benzo(a)pyrene-induced forestomach tumors: effective inhibitors of benzo(a) pyrene-induced forestomach tumors in mice

## COc1ccc([SeH])cc1 [MBS, p-methoxybenzenenselenol, reference compound]
[10]
  Inhibition of benzo(a)pyrene-induced forestomach tumors: effective inhibitors of benzo(a) pyrene-induced forestomach tumors in mice
[11]
  Inhibition of AOM-induced carcinogenesis: inhibited azoxymethane ("AOM")-induced colon, kidney, and hepatocarcinogenesis in rats
